# Legend:
# NCI-H460 cells = assay: Cancer cell growth inhibition experiment (MTT assay); format: cell-based; settings: Homo sapiens, lung cancer cell line, compounds 48 hours, cell viability by MTT assay
# Protocol: NCl-H460 cells, lung cancer cell lines, were cultured in 5% CO2, 37° C. incubator using a flask for 75 cm^2 tissue culture. 96-well plates were used for the evaluation. These were prepared by differently applying at concentrations in the range of 6,000 to 12,000 cells/well according to the growth rate of the cell lines. The medium containing 5% FBS were dispensed in 200 μL/well and used. The medium were cultured for 24 hours. After confirming the cell status and dispensing form of a 96-well plate under a microscope, they were used for subsequent experiments. The compounds were evaluated at concentrations of 100, 30, 10, 3, 1, 0.3, 0.03, 0.01 μM. After removing the existing medium, the compounds with various concentrations were treated in an amount of 200 μL/well. The compounds-treated plates were further cultured for 48 hours, and the cell viabilities were measured by MTT assay to calculate IC50 values.
# % Inhibition and IC50 values of the respective compounds were calculated and analyzed using Sigma Plot 8.0. In Table 2, the results are divided into A, B and C according to the range of IC50. The case where the derived IC50 is 3 μM or less is represented by “A”, the case where the IC50 is 3 to 10 μM is represented by “B”, and the case where the IC50 is 10 μM or higher is represented by “C”.
# PRS enzyme = target: T1, PRS enzyme (Homo sapiens, UniProt P07814); assay: PRS enzyme activity inhibition experiment; format: biochemical; settings: purified PRS protein subcloned from EPRS cDNA; [3H]proline, 37° C., 5 to 10 minutes, liquid scintillation counter; read-out: PRS IC50
# T1 construct: the portion corresponding to PRS in cDNA of EPRS was subcloned; made in house
# T1 sequence (P07814 1007-1512 limits assumed): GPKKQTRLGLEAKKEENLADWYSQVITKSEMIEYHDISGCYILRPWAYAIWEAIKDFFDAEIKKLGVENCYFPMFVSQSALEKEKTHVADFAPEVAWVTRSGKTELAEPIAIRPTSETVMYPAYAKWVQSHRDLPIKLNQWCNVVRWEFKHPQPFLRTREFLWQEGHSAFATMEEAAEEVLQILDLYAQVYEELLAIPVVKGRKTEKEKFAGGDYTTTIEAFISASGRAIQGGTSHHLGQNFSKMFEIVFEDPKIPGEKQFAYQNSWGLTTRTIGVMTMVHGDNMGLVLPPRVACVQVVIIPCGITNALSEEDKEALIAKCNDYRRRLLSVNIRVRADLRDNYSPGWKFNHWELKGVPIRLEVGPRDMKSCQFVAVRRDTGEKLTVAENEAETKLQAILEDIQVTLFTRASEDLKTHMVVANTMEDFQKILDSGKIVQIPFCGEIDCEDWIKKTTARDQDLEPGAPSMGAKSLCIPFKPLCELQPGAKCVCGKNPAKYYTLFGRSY
# Protocol: Specifically, the portion corresponding to PRS in cDNA of EPRS was subcloned, and the obtained high-purity PRS protein was purified and used in the experiment. The compounds (1 μM) prepared in Examples were added into the reaction buffer (20 mM KPO4 (pH 7.4), 6 mM MgAc, 5 mM ATP, […] tRNA, 0.5 mM DTT, […][^3H]proline (1 mCi/mL)) and allowed to react at 37° C. for 5 to 10 minutes. The reaction was terminated with 3M paper that was in advance dried by addition of 5% TCA. The radioactivity was measured using a liquid scintillation counter.
# % Inhibition and IC50 values of the respective compounds were calculated and analyzed using Microsoft Excel or Sigma Plot 8.0. In Table 1, the results are divided into A, B and C according to the range of IC50.
SMILES,IC50 (NCI-H460 cells),IC50 (PRS enzyme)
"COc1cccc(-c2ccc3c(ncn3CC(=O)C[C@H]3NCCC[C@@H]3O)c2C)c1 [Example 22, 1-((2R,3S)-3-hydroxypiperidin-2-yl)-3-(5-(3-methoxyphenyl)-4-methyl-1H-benzo[d]imidazol-1-yl)propan-2-one]",≥ 10 µM,> 0.5 µM
"Cc1c(-c2cscn2)ccc2c1ncn2CC(=O)C[C@H]1NCCC[C@@H]1O [Example 23, 1-((2R,3S)-3-hydroxypiperidin-2-yl)-3-(4-methyl-5-(thiazol-4-yl)-1H-benzo[d]imidazol-1-yl)propan-2-one]",≥ 10 µM,< 0.1 µM
"O=C(C[C@H]1NCCC[C@@H]1O)Cn1cnc2ccc(-c3ccccc3)cc21 [Example 24, 1-((2R,3S)-3-hydroxypiperidin-2-yl)-3-(6-phenyl-1H-benzo[d]imidazol-1-yl)propan-2-one]",3 to 10 µM,< 0.1 µM
"O=C(C[C@H]1NCCC[C@@H]1O)Cn1cnc2ccc(-c3cccc(F)c3)cc21 [Example 25, 1-(6-(3-fluorophenyl)-1H-benzo[d]imidazol-1-yl)-3-((2R,3S)-3-hydroxypiperidin-2-yl)propan-2-one]",≤ 3 µM,< 0.1 µM
"O=C(C[C@H]1NCCC[C@@H]1O)Cn1cnc2ccc(-c3ccccc3Cl)cc21 [Example 26, 1-(6-(2-chlorophenyl)-1H-benzo[d]imidazol-1-yl)-3-((2R,3S)-3-hydroxypiperidin-2-yl)propan-2-one]",3 to 10 µM,< 0.1 µM
"O=C(C[C@H]1NCCC[C@@H]1O)Cn1cnc2ccc(-c3cccc(Cl)c3)cc21 [Example 27, 1-(6-(3-chlorophenyl)-1H-benzo[d]imidazol-1-yl)-3-((2R,3S)-3-hydroxypiperidin-2-yl)propan-2-one]",≤ 3 µM,< 0.1 µM
"O=C(C[C@H]1NCCC[C@@H]1O)Cn1cnc2ccc(-c3ccc(Cl)cc3)cc21 [Example 28, 1-(6-(4-chlorophenyl)-1H-benzo[d]imidazol-1-yl)-3-((2R,3S)-3-hydroxypiperidin-2-yl)propan-2-one]",3 to 10 µM,< 0.1 µM
"O=C(C[C@H]1NCCC[C@@H]1O)Cn1cnc2ccc(-c3cccc(C(F)(F)F)c3)cc21 [Example 29, 1-((2R,3S)-3-hydroxypiperidin-2-yl)-3-(6-(3-(trifluoromethyl)phenyl)-1H-benzo[d]imidazol-1-yl)propan-2-one]",≤ 3 µM,< 0.1 µM
"Cc1cccc(-c2ccc3ncn(CC(=O)C[C@H]4NCCC[C@@H]4O)c3c2)c1 [Example 30, 1-((2R,3S)-3-hydroxypiperidin-2-yl)-3-(6-(m-tolyl)-1H-benzo[d]imidazol-1-yl)propan-2-one]",3 to 10 µM,< 0.1 µM
"O=C(C[C@H]1NCCC[C@@H]1O)Cn1cnc2ccc(-c3cc(Cl)cc(Cl)c3)cc21 [Example 31, 1-(6-(3,5-dichlorophenyl)-1H-benzo[d]imidazol-1-yl)-3-((2R,3S)-3-hydroxypiperidin-2-yl)propan-2-one]",3 to 10 µM,< 0.1 µM
"O=C(C[C@H]1NCCC[C@@H]1O)Cn1cnc2ccc(-c3cc(F)cc(Cl)c3)cc21 [Example 32, 1-(6-(3-chloro-5-fluorophenyl)-1H-benzo[d]imidazol-1-yl)-3-((2R,3S)-3-hydroxypiperidin-2-yl)propan-2-one]",≤ 3 µM,< 0.1 µM
"O=C(C[C@H]1NCCC[C@@H]1O)Cn1cnc2ccc(-c3ccc(F)c(Cl)c3)cc21 [Example 33, 1-(6-(3-chloro-4-fluorophenyl)-1H-benzo[d]imidazol-1-yl)-3-((2R,3S)-3-hydroxypiperidin-2-yl)propan-2-one]",3 to 10 µM,< 0.1 µM
"Cc1cc(Cl)cc(-c2ccc3ncn(CC(=O)C[C@H]4NCCC[C@@H]4O)c3c2)c1 [Example 34, 1-(6-(3-chloro-5-methylphenyl)-1H-benzo[d]imidazol-1-yl)-3-((2R,3S)-3-hydroxypiperidin-2-yl)propan-2-one]",3 to 10 µM,< 0.1 µM
"COc1cc(Cl)cc(-c2ccc3ncn(CC(=O)C[C@H]4NCCC[C@@H]4O)c3c2)c1 [Example 35, 1-(6-(3-chloro-5-methoxyphenyl)-1H-benzo[d]imidazol-1-yl)-3-((2R,3S)-3-hydroxypiperidin-2-yl)propan-2-one]",3 to 10 µM,< 0.1 µM
"N#Cc1cc(Cl)cc(-c2ccc3ncn(CC(=O)C[C@H]4NCCC[C@@H]4O)c3c2)c1 [Example 36, 3-chloro-5-(1-(3-((2R,3S)-3-hydroxypiperidin-2-yl)-2-oxopropyl)-1H-benzo[d]imidazol-6-yl)benzonitrile]",3 to 10 µM,< 0.1 µM
"O=C(C[C@H]1NCCC[C@@H]1O)Cn1cnc2ccc(-c3cn[nH]c3)cc21 [Example 37, 1-(6-(1H-pyrazol-4-yl)-1H-benzo[d]imidazol-1-yl)-3-((2R,3S)-3-hydroxypiperidin-2-yl)propan-2-one]",≥ 10 µM,< 0.1 µM
"O=C(C[C@H]1NCCC[C@@H]1O)Cn1cnc2ccc(-c3cc[nH]n3)cc21 [Example 38, 1-(6-(1H-pyrazol-3-yl)-1H-benzo[d]imidazol-1-yl)-3-((2R,3S)-3-hydroxypiperidin-2-yl)propan-2-one]",≥ 10 µM,0.1 to 0.5 µM
"O=C(C[C@H]1NCCC[C@@H]1O)Cn1cnc2ccc(-c3cscn3)cc21 [Example 39, 1-((2R,3S)-3-hydroxypiperidin-2-yl)-3-(6-(thiazol-4-yl)-1H-benzo[d]imidazol-1-yl)propan-2-one]",≥ 10 µM,0.1 to 0.5 µM
"O=C(C[C@H]1NCCC[C@@H]1O)Cn1cnc2ccc(-c3ccc(=O)[nH]c3)cc21 [Example 40, 5-(1-(3-((2R,3S)-3-hydroxypiperidin-2-yl)-2-oxopropyl)-1H-benzo[d]imidazol-6-yl)pyridin-2(1H)-one]",≥ 10 µM,> 0.5 µM
"O=C(C[C@H]1NCCC[C@@H]1O)Cn1cnc2ncc(-c3cccc(Cl)c3)cc21 [Example 41, 1-(6-(3-chlorophenyl)-1H-imidazo[4,5-b]pyridin-1-yl)-3-((2R,3S)-3-hydroxypiperidin-2-yl)propan-2-one]",≥ 10 µM,< 0.1 µM
"O=C(C[C@H]1NCCC[C@@H]1O)Cn1cnc2ccc(-c3ccccc3F)nc21 [Example 43, 1-(5-(2-fluorophenyl)-3H-imidazo[4,5-b]pyridin-3-yl)-3-((2R,3S)-3-hydroxypiperidin-2-yl)propan-2-one]",≤ 3 µM,0.1 to 0.5 µM
"O=C(C[C@H]1NCCC[C@@H]1O)Cn1cnc2ccc(-c3cccc(F)c3)nc21 [Example 44, 1-(5-(3-fluorophenyl)-3H-imidazo[4,5-b]pyridin-3-yl)-3-((2R,3S)-3-hydroxypiperidin-2-yl)propan-2-one]",≤ 3 µM,< 0.1 µM
"O=C(C[C@H]1NCCC[C@@H]1O)Cn1cnc2ccc(-c3ccc(F)cc3)nc21 [Example 45, 1-(5-(4-fluorophenyl)-3H-imidazo[4,5-b]pyridin-3-yl)-3-((2R,3S)-3-hydroxypiperidin-2-yl)propan-2-one]",3 to 10 µM,< 0.1 µM
"O=C(C[C@H]1NCCC[C@@H]1O)Cn1cnc2ccc(-c3cccc(Cl)c3)nc21 [Example 46, 1-(5-(3-chlorophenyl)-3H-imidazo[4,5-b]pyridin-3-yl)-3-((2R,3S)-3-hydroxypiperidin-2-yl)propan-2-one]",≤ 3 µM,< 0.1 µM
